Results reported in ChEMBL document CHEMBL1123668, “Inhibition of aspartic proteinases by peptides containing lysine and ornithine side-chain analogues of statine” (J Med Chem, 1987).
Square brackets hold non-standard residues; d marks the D form. Peptide text beside a SMILES is read from it. * marks the point of attachment. ξ: configuration not given here. Sta = CC(C)C[C@H](N)[C@@H](O)CC(=O)O; Isovaleryl = CC(C)CC(=O)*; ξF = NC(Cc1ccccc1)C(=O)O

What was measured:
Rhizopuspepsin = biological target: T1, Rhizopuspepsin (Rhizopus microsporus var. chinensis, UniProt P06026); assay: Inhibition of Rhizopus chinensis pepsin
T1 sequence (P06026 whole entry): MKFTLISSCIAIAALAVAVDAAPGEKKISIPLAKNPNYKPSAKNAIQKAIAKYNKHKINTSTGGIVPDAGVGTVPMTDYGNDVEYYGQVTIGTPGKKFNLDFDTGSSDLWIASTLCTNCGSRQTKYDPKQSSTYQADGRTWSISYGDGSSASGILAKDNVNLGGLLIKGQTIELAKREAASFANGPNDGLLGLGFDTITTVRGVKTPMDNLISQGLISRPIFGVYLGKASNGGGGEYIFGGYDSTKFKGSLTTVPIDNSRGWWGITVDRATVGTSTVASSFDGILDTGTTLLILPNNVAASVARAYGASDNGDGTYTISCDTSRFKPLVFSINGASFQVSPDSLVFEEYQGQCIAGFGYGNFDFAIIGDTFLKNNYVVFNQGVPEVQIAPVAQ

[1] = Compound was evaluated for the inhibition of […] penicillopepsin; Value is time-dependent inhibition (TDI) with T1/2 > 30 s)
[2] = Compound was evaluated for the inhibition of […] penicillopepsin; ( Value is time-dependent inhibition (TDI) with T1/2 > 30 s.)
Pepsin A = Pepsin A (Sus scrofa, UniProt P00791); assay: Compound was evaluated for the inhibition of porcine pepsin
Pepsin A, sequence (P00791 whole entry): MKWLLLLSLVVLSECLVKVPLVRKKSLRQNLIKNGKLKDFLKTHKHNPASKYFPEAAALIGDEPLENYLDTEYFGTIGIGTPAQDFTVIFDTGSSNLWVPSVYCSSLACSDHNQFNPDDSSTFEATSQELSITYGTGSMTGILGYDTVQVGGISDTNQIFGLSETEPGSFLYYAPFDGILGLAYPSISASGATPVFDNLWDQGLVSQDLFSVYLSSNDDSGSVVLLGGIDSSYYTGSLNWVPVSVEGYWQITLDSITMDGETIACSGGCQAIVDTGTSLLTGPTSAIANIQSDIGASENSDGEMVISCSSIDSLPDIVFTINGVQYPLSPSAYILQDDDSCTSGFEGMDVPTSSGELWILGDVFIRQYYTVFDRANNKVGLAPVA

[3] = Compound was evaluated for the inhibition of porcine penicillopepsin

Ki (Rhizopuspepsin) | Ki [1] | Ki (Pepsin A) | Ki [3] | SMILES | Ki [2]
47 nM | 1.1 nM |  |  | CCOC(=O)CC(O)[C@H](CCCN)NC(=O)[C@H](NC(=O)C(NC(=O)CC(C)C)C(C)C)C(C)C (stereo partly specified) | 
 |  |  |  | COC(=O)C(Cc1ccccc1)NC(=O)C[C@H](O)[C@H](CCCCN)NC(=O)[C@H](NC(=O)C(NC(=O)CC(C)C)C(C)C)C(C)C (stereo partly specified) | 0.08 nM
29 nM |  | 1900 nM | 100 nM | CCOC(=O)C[C@H](O)[C@H](CCCCNC(C)=O)NC(=O)[C@H](NC(=O)C(NC(=O)CC(C)C)C(C)C)C(C)C (stereo partly specified) | 
33 nM |  |  |  | CCOC(=O)C[C@H](O)[C@H](CCCCN)NC(=O)[C@H](NC(=O)C(NC(=O)CC(C)C)C(C)C)C(C)C (stereo partly specified) | 
42 nM |  |  | 47 nM | CCOC(=O)C[C@H](O)[C@H](CC(C)C)NC(=O)[C@@H](NC(=O)[C@@H](NC(=O)CC(C)C)C(C)C)C(C)C (Isovaleryl-Val-Val-[Sta]-OEt) | 

SMILES | Ki (Rhizopuspepsin) | Ki [1] | Ki (Pepsin A) | Ki [3] | Ki [2]
COC(=O)C(Cc1ccccc1)NC(=O)C[C@H](O)[C@H](CC(C)C)NC(=O)[C@@H](NC(=O)[C@@H](NC(=O)CC(C)C)C(C)C)C(C)C (stereo partly specified) (Isovaleryl-VV[Sta][ξF]-OMe) | 11 nM |  |  |  | 1.3 nM
